Reference: US8680269B2, “Pesticidal compositions” (Dow AgroSciences, LLC., priority 2009, dated 2014)

Columns and labels:
Type in all cases: in vivo
[1] = system: green peach aphid (Myzus persicae); assay: Insecticidal test for green peach aphid in foliar spray assay; conditions: 72 h, 200 ppm foliar spray on cabbage seedlings, graded after three days, Abbott corrected % control, read-out: Mortality GPA 200 ppm
Procedure: Cabbage seedlings grown in 3-inch pots, with 2-3 small (3-5 cm) true leaves, were used as test substrate. The seedlings were infested with 20-50 green peach aphids (wingless adult and nymph) one day prior to chemical application. Four pots with individual seedlings were used for each treatment. Compounds (2 mg) were dissolved in 2 mL of acetone/methanol (1:1) solvent, forming stock solutions of 1000 ppm. The stock solutions were diluted 5× with 0.025% Tween 20 in H2O to obtain the test solution at 200 ppm. A hand-held Devilbiss sprayer was used for spraying a solution to both sides of cabbage leaves until runoff. Reference plants (solvent check) were sprayed with the diluent only. Treated plants were held in a holding room for three days at approximately 25° C. and 40% relative humidity (RH) prior to grading. Evaluation was conducted by counting the number of live aphids per plant under a microscope. Insecticidal activity data, measured by using Abbott's correction formula, are presented in Table 2: Corrected % Control=100*(X−Y)/X • where X=No. of live aphids on solvent check plants • Y=No. of live aphids on treated plants

[2] = system: beet armyworm (BAW; Spodoptera exigua); assay: Insecticidal test for beet armyworm, 128-well diet tray assay; conditions: 144 h, 50 μg/cm2 on artificial diet, second instar larvae, six days at 25° C.
Procedure: (§1) Bioassays on beet armyworm (BAW; Spodoptera exigua: Lepidoptera) were conducted using a 128-well diet tray assay. Three to five second instar BAW larvae were placed in each well (3 mL) of the diet tray that had been previously filled with 1 mL of artificial diet to which 50 μg/cm^2 of the test compound (dissolved in 50 μL of 90:10 acetone-water mixture) had been applied (to each of eight wells) and then allowed to dry. Trays were covered with a clear self-adhesive cover, and held at 25° C., 14:10 light-dark for six days. Percent mortality was recorded for the larvae in each well; activity in the eight wells was then averaged.

[3] = system: corn earworm (CEW; Helicoverpa zea); assay: Insecticidal test for corn earworm, 128-well diet tray assay; conditions: 144 h, 50 μg/cm2 on artificial diet, second instar larvae, six days at 25° C.
Procedure: as §1, with “corn earworm (CEW; Helicoverpa zea:” for “beet armyworm (BAW; Spodoptera exigua:”, “CEW” for “BAW”

SMILES | mortality at 200 ppm [1] [%] | mortality at 50 µg/cm2 [2] [%] | mortality at 50 µg/cm2 [3] [%]
FC(F)(F)Oc1ccc(-n2cnc(-c3ccc(/C=N/NC(=S)Nc4ccccc4)cc3)n2)cc1 [Compound 14] | < 80 | 50 to 100 | 50 to 100
C/C(=N\NC(=S)Nc1c(C)cccc1C)c1ccc(-c2ncn(-c3ccc(OC(F)(F)F)cc3)n2)cc1 [Compound 126] | < 80 | 50 to 100 | 50 to 100
FC(F)(F)Oc1ccc(-n2cnc(-c3ccc(/C=N/NC(=S)NCc4ccccc4)cc3)n2)cc1 [Compound 3, N-benzyl-2-(4-(1-(4-(trifluoromethoxy)phenyl)-1H-1,2,4-triazol-3-yl)benzylidene)hydrazinecarbothioamide] | < 80 | 50 to 100 | < 50
CC(=O)Nc1cccc(NC(=S)N/N=C/c2ccc(-c3ncn(-c4ccc(OC(F)(F)F)cc4)n3)cc2)n1 [Compound 44] | < 80 | < 50 | < 50
CCc1cccc(C)c1NC(=S)N/N=C/c1ccc(-c2ncn(-c3ccc(OC(F)(F)F)cc3)n2)cc1 [Compound 72] | < 80 | 50 to 100 | 50 to 100
FC(F)(F)c1ccc(-n2cnc(-c3ccc(/C=N/NC(=S)NCCc4ccccn4)cc3)n2)cc1 [Compound 5] | < 80 | 50 to 100 | 50 to 100
CN(C)c1ccc(NC(=S)N/N=C/c2ccc(-c3ncn(-c4ccc(OC(F)(F)F)cc4)n3)cc2)cc1 [Compound 1] | < 80 | 50 to 100 | 50 to 100
Cc1cccc(C)c1NC(=S)N/N=C/c1ccc(-c2ncn(-c3ccc(OC(F)(F)C(F)(F)F)cc3)n2)cc1 [Compound 97] | < 80 | 50 to 100 | 50 to 100
Cc1ccccc1NC(=S)N/N=C/c1ccc(-c2ncn(-c3ccc(OC(F)(F)F)cc3)n2)cc1 [Compound 71] | < 80 | 50 to 100 | 50 to 100
CN(C)c1ccccc1CNC(=S)N/N=C/c1ccc(-c2ncn(-c3ccc(OC(F)(F)F)cc3)n2)cc1 [Compound 39] | < 80 | 50 to 100 | 50 to 100
CS(=O)(=O)c1ccccc1NC(=S)N/N=C/c1ccc(-c2ncn(-c3ccc(OC(F)(F)F)cc3)n2)cc1 [Compound 52] | < 80 | 50 to 100 | 50 to 100
COc1cc(C)c(NC(=S)N/N=C(\C)c2ccc(-c3ncn(-c4ccc(OC(F)(F)F)cc4)n3)cc2)c(C)c1 [Compound 125] | < 80 | 50 to 100 | 50 to 100
CCOC(=O)CNC(=S)N/N=C/c1ccc(-c2ncn(-c3ccc(OC(F)(F)F)cc3)n2)cc1 [Compound 30] | < 80 | 50 to 100 | 50 to 100
C=CCNC(=S)N/N=C/c1ccc(-c2ncn(-c3ccc(OC(F)(F)F)cc3)n2)cc1 [Compound 12] | < 80 | 50 to 100 | 50 to 100
N#Cc1ccccc1NC(=S)N/N=C/c1ccc(-c2ncn(-c3ccc(OC(F)(F)F)cc3)n2)cc1 [Compound 53] | < 80 | 50 to 100 | 50 to 100
COc1ccccc1NC(=S)N/N=C/c1ccc(-c2ncn(-c3ccc(OC(F)(F)F)cc3)n2)cc1 [Compound 74] | < 80 | 50 to 100 | 50 to 100
CNc1ccc(NC(=S)N/N=C/c2ccc(-c3ncn(-c4ccc(OC(F)(F)F)cc4)n3)cc2)cc1 [Compound 42] | < 80 | 50 to 100 | 50 to 100

SMILES | mortality at 200 ppm [1] [%] | mortality at 50 µg/cm2 [2] [%] | mortality at 50 µg/cm2 [3] [%]
CN(C)c1cccc(NC(=S)N/N=C/c2ccc(-c3ncn(-c4ccc(OC(F)(F)F)cc4)n3)cc2)c1 [Compound 2, N-(3-(dimethylamino)phenyl)-2-(4-(1-(4-(trifluoromethoxy)phenyl)-1H-1,2,4-triazol-3-yl)benzylidene)hydrazinecarbothioamide] | < 80 | 50 to 100 | 50 to 100
CCc1ccccc1NC(=S)N/N=C/c1ccc(-c2ncn(-c3ccc(OC(F)(F)F)cc3)n2)cc1 [Compound 62] | < 80 | 50 to 100 | 50 to 100
FC(F)(F)Oc1ccc(-n2cnc(-c3ccc(/C=N/NC(=S)NCc4ccco4)cc3)n2)cc1 [Compound 27] | < 80 | 50 to 100 | 50 to 100
CC(=O)N(C)c1ccc(NC(=S)N/N=C/c2ccc(-c3ncn(-c4ccc(OC(F)(F)F)cc4)n3)cc2)cc1 [Compound 40] | < 80 | 50 to 100 | 50 to 100
FC(F)(F)Oc1ccc(-n2cnc(-c3ccc(/C=N/NC(=S)NCCOc4ccccn4)cc3)n2)cc1 [Compound 17] | < 80 | 50 to 100 | 50 to 100
FC(F)(F)Oc1ccc(-n2cnc(-c3ccc(/C=N/NC(=S)Nc4ccccc4OC(F)(F)F)cc3)n2)cc1 [Compound 66] | < 80 | 50 to 100 | 50 to 100
FC(F)(F)Oc1ccc(-n2cnc(-c3ccc(/C=N/NC(=S)Nc4ccc(C(F)(F)F)cc4)cc3)n2)cc1 [Compound 32] | < 80 | < 50 | < 50
Fc1ccc(NC(=S)N/N=C/c2ccc(-c3ncn(-c4ccc(OC(F)(F)F)cc4)n3)cc2)cc1 [Compound 10] | < 80 | 50 to 100 | 50 to 100
COc1cc(C)c(NC(=S)N/N=C/c2ccc(C3=NN(c4ccc(OC(F)(F)F)cc4)C(C(N)=O)C3)cc2)c(C)c1 (stereo not drawn) [Compound 133] | < 80 | 50 to 100 | 50 to 100
CCc1cccc(CC)c1NC(=S)N/N=C/c1ccc(-c2ncn(-c3ccc(OC(F)(F)F)cc3)n2)cc1 [Compound 76] | < 80 | 50 to 100 | 50 to 100
FC(F)(F)Oc1ccc(-n2cnc(-c3ccc(/C=N/NC(=S)NCCC4=CCCCC4)cc3)n2)cc1 [Compound 20] | < 80 | 50 to 100 | 50 to 100
FC(F)(F)Oc1ccc(-n2cnc(-c3ccc(/C=N/NC(=S)Nc4c(Cl)cccc4Cl)cc3)n2)cc1 [Compound 29] | < 80 | 50 to 100 | 50 to 100
CNC(=S)N/N=C/c1ccc(-c2ncn(-c3ccc(OC(F)(F)F)cc3)n2)cc1 [Compound 13] | < 80 | 50 to 100 | 50 to 100
O=C(N/N=C/c1ccc(-c2ncn(-c3ccc(OC(F)(F)F)cc3)n2)cc1)Nc1ccc(F)cc1 [Compound 35] | < 80 | < 50 | < 50
CSc1ccccc1NC(=S)N/N=C/c1ccc(-c2ncn(-c3ccc(OC(F)(F)F)cc3)n2)cc1 [Compound 75] | < 80 | 50 to 100 | 50 to 100
CN(C)c1ccc(NC(=S)N/N=C/c2ccc(-c3ncn(-c4ccc(OC(F)(F)C(F)(F)F)cc4)n3)cc2)cc1 [Compound 36] | < 80 | 50 to 100 | 50 to 100
